Laboratory results published in article PMC12186257, “Serendipitous and Systematic Chemoproteomic Discovery of MBLAC2, HINT1, and NME1‑4 Inhibitors from Histone Deacetylase-Targeting Pharmacophores” (ACS Chemical Biology, 2025).
Values belong to the compound of their own block, whether it stands above or below them.

What was measured:
MBLAC2 = target: T1, MBLAC2 (Homo sapiens, UniProt Q68D91); experiment: chemoproteomic competition assay (MV4-11/SW620 lysate, iA/iC/iQ beads, MS readout); type: binding; settings: for MBLAC2 binding / Kd: nine-dose competition assay; for EC50: focused library profiling; for Kd: read-out: KDapp MBLAC2
T1 construct: incubated at increasing concentrations with a mixture of lysates of MV4–11 and SW620 cells; endogenous in cells; host or cells: mixed lysate of MV4-11 and SW620 cells
T1 sequence (Q68D91 1-279): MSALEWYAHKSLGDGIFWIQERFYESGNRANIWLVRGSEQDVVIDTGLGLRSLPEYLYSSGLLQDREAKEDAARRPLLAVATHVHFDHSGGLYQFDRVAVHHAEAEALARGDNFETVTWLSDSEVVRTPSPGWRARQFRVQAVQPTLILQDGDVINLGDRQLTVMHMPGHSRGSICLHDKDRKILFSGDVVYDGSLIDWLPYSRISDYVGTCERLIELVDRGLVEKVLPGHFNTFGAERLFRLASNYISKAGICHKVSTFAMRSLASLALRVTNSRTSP
Protocol: (§1) MBLAC2 is a metalloenzyme predicted to harbor one or two Zn^2+ ions in its active site. […] In this assay, compounds of interest are incubated at increasing concentrations with a mixture of lysates of MV4–11 and SW620 cells. The compound-treated lysates are then mixed with bead-immobilized hydroxamic acid-containing compounds iA, iC, and iQ (immobilized Quisinostat), which pull down compound-binding proteins such as HDACs, MBLAC2, ISOC1/2, ALDH2, and GATD3A (Figure a) that can be identified and quantified by mass spectrometry (MS). Proteins targeted by the library compounds in a preincubation step are prevented from being pulled down by the immobilized probes, leading to a dose-dependent reduction in MS signal. Initially, 12 metal-chelating compounds were profiled at two concentrations (10 μM and 100 μM) (Figure S3).
(§2) Chemoproteomic competition assays
Sample preparation. For the MBLAC2 and HDAC inhibitor competition assay, the generation of affinity matrices, lysate generation, pulldown assay, and sample preparation were performed as described in […]
detail in REF1. […]
(§3) LC-MS/MS. The different sample types were measured with different LC-MS/MS settings. MBLAC2 2-dose competition assays were measured with the Lumos1 setup, MBLAC2 9-dose competition assays were measured with the Lumos2 setup, and kinobeads assays were measured with the Eclipse setup.
(§4) Peptides were analyzed via LC–MS/MS on a Dionex Ultimate3000 nano HPLC coupled to either one of two Orbitrap Fusion Lumos mass spectrometers, or to an Orbitrap Eclipse mass spectrometer, operated via the Thermo Scientific Xcalibur software.
(§5) In the all setups, peptides were loaded on a trap column (100 μm × 2 cm, packed in-house with Reprosil-Gold C18 ODS-3 5 μm resin, Dr. Maisch, Ammerbuch) and washed with 5 μL/min solvent A (0.1% formic acid in HPLC grade water) for 10 min. Peptides were then separated on an analytical column (75 μm × 40 cm, packed in-house with Reprosil-Gold C18 3μm resin, Dr. Maisch, Ammerbuch) using a 50 min gradient ranging from 4 to 32% solvent B (0.1% formic acid, 5% DMSO in acetonitrile) in solvent A (0.1% formic acid, 5% DMSO in HPLC grade water) at a flow rate of 300 nL/min.
(§6) The mass spectrometers were operated in data-dependent mode, automatically switching between MS1 and MS2 spectra. MS1 spectra were acquired over a mass-to-charge (m/z) range of 360–1300 m/z at a resolution of 60,000 (at m/z 200) in the Orbitrap using a maximum injection time of 50 ms and an automatic gain control (AGC) target value of 4e5.
(§7) In Lumos settings, up to 12 peptide precursors were isolated in (isolation width of 1.2 Th for Lumos1 and 1.7 for Lumos2, maximum injection time of 75 ms, AGC value of 1e5 for Lumos1 and 2e5 for Lumos2), fragmented by HCD using 30% normalized collision energy (NCE) and analyzed in the Orbitrap at a resolution of 15,000 (Lumos2) or 30,000 (Lumos1). The dynamic exclusion duration of fragmented precursor ions was set to 20 s (Lumos1) or 30 s (Lumos2). In Eclipse measurements, a cycle time of 2 s was chosen. Peptides were isolated in the quadrupole with an isolation offset of 1.2 (isolation width of 1.2 Th, maximum injection time of 54 ms, AGC target of 200%) and fragmented by HCD with an NCE of 30% and analyzed in the Orbitrap at a resolution of 30,000. The dynamic exclusion on the Eclipse was set to 20 s.
Data analysis. The data analysis of MBLAC2/HDAC inhibitor competition assays was performed as described in detail in REF1. LFQ intensity values were used for the calculation of relative residual binding to the affinity matrix. […]

HeLa cells = experiment: clathrin-mediated endocytosis of fluorescently labeled transferrin; type: cell-based; settings: HeLa cells, 2 µM, 20 h
Protocol: Given that local GTP production by NME1 and NME2 is essential for fueling dynamin-driven endocytosis, we investigated the effect of KV-50-mediated NME1/2 inhibition on fluorescent transferrin (TF) uptake in cells. HeLa cells were treated with KV-50 or known endocytosis inhibitors (Pitstop-2 and Dynasore), and surface-bound and internalized fluorescent TF were quantified.

[1] = system: cell proliferation or fitness; experiment: alamar blue cell metabolic activity assay with MBLAC2 inhibitors; type: cell-based; settings: 72h, five concentrations
Text: Our earlier observation that MBLAC2 inactivation leads to the upregulation of extracellular vesicles (EVs), combined with evidence of MBLAC2’s association with late endosomes and membrane processes, , prompted us to hypothesize that MBLAC2 inactivation might impair endocytosis. To test this hypothesis, we measured clathrin-mediated endocytosis of fluorescently labeled transferrin (TF) in the presence and absence of MBLAC2 inhibitors. […] Thus, the precise biological roles of MBLAC2 remain elusive. However, we anticipate that the selective compounds identified in this study will serve as valuable tools for elucidating the cell biological functions of MBLAC2 in future research.
Fig. S6| Characterization of MBLAC2 inhibitors. a, 9-dose competition assay of MBLAC2 selective inhibitors KV-65 and KV-79. b, Impact of MBLAC2i on cell metabolic activity assessed in an alamar blue assay. Cells were treated in triplicates with five concentrations of MBLAC2i and a DMSO vehicle control for 72h. c, Clathrin-mediated endocytosis assay based on measurement of fluorescent transferrin uptake. Dynasore and Pitstop-2 serve as positive controls. HeLa cells were pre-incubated with 100 µM Dynasore, 2 µM KV65, or 2 µM KV79 for 20 h before the microscopy readout. 30 µM Pitstop-2 was added only for 15 min before readout. […]

[2] = system: compound-binding proteins such as HDACs, MBLAC2, ISOC1/2, ALDH2, and GATD3A; experiment: chemoproteomic competition assay, proteome-wide target binding profile; set-up: species or system human; settings: dose-dependent competition
Protocol: as §1, §2
Sample preparation. For the MBLAC2 and HDAC inhibitor competition assay, the generation of affinity matrices, lysate generation, pulldown assay, and sample preparation were performed as described in detail in REF1. For the kinobeads assay, the generation of affinity matrices, lysate generation, pulldown assay, and sample preparation were performed as described in detail in REF2.
as §3, §4, §5, §6
as §7, with “HCD with an NCE of 30% and analyzed in the Orbitrap at a resolution of 30,000. The dynamic exclusion on the Eclipse was set to 20 s.” left out

[3] = target: recombinant HINT1 (hHint1) (Homo sapiens, UniProt P49773); experiment: HINT1 enzyme activity assay (TrpA hydrolysis, fluorescence); type: biochemical; settings: hHint1 0.002 µM, TrpA 0.5 µM, 25 °C
Sequence of recombinant HINT1 (hHint1) (P49773 whole entry): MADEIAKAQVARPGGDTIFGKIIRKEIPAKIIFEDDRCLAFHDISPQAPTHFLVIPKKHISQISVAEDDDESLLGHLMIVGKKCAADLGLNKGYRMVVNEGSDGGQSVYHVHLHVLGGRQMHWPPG
Text: While the biologically relevant substrates of HINT1 have not been clearly elucidated, the protein has been implicated in opioid receptor signaling, − regulation of the melanoma-associated transcription factor MITF, , and DNA damage repair. These functions position HINT1 as a potential pharmacological target for treating conditions such as opioid resistance or melanoma. The only reported HINT1-targeting pharmacophores are nucleoside-based nonhydrolyzable substrate analogs, such as the carbamate TrpGC (Figure a). , We evaluated the inhibitory potential of KV-24 and KV-30 in enzyme activity assays using recombinant HINT1. […] This discrepancy could be attributed to reduced affinity for the recombinant enzyme due to the absence of post-translational modifications (PTMs), cofactors, or interaction partners that enhance drug binding. Alternatively, it might result from substrate dilution in the lysate, whereas high substrate concentrations in the enzyme activity assay require the inhibitor to compete more effectively.
Mouse brain proteomics – LC-MS/MS. Proteome analysis of brain mouse tissue samples was performed on a micro-flow LC timsTOF HT setup described in detail in REF14. Liquid chromatography in micro-flow mode was performed on a Vanquish Neo UHPLC System (Thermo Fisher Scientific) at a flow rate of 50 µL/min. […] 10 µg of peptide mix was injected and analyzed using a 58 min gradient starting at 1% B up to 45% B (1 h method). […]
Mouse proteomics data analysis. The data files were analyzed with DIA-NN 1.8.1. […] The resulting protein group tables were further analyzed by Perseus 1.6.2.2. […]
CME of transferrin and confocal microscopy analyses.For transferrin uptake experiments HeLa cells were seeded on Matrigel-coated coverslips, and incubated with 0.1 % DMSO, or with 100 µM dynasore, 20 µM KV50, 2 µM KV65, or 2 µM KV79 in media containing 10% FCS at 37°C for 20 h. […] All inhibitor treatments were performed in duplicate, to enable quantification of surface levels of transferrin receptors, and to assess the capability of transferrin receptor endocytosis. […]

Toxoplasma gondii = system: Toxoplasma gondii; set-up: method as in PMID 33360687, PMID 35483428, PMID 38431113, PMID 29414107; settings: in human host cells; cited from earlier work

MBLAC2 binding (MBLAC2): potently bound MBLAC2
Compound: O=C(NO)c1ccc(Cn2c(=O)n(CCc3ccccc3)c(=O)c3ccccc32)cc1 [Compound J22352]

EC50 (MBLAC2): 83 nM
Compound: O=C(NO)c1ccc(CN2c3ccccc3Sc3ccccc32)cc1 [KV-46]

Compound: O=C(NO)c1ccc(CN2c3ccccc3S(=O)(=O)c3ccccc32)cc1 [KV-65]
TF uptake (HeLa cells): not statistically significant
EC50 (MBLAC2): 37 nM
concentration up to which cell proliferation or fitness not affected [1]: > 10 µM

Compound: O=C(NO)c1ccc(CN2c3ccccc3Sc3ccc(C(F)(F)F)cc32)cc1 [KV-79]
TF uptake (HeLa cells): not statistically significant
selectivity compared to HDACs (MBLAC2; abstract): over 60 fold
EC50 (MBLAC2): 25 nM
concentration up to which cell proliferation or fitness not affected [1]: > 10 µM

Compound: O=C(CCCCCCC(=O)NO)NO [SBHA, suberoyl-bis-hydroxamic acid, reference compound]
targets / off-targets bound [2]: bind off-targets such as ISOC1/2, GATD3A, and ALDH2

Kd (MBLAC2): ~800 nM
Compound: CN(CC(=O)N(Cc1ccc(C2CCCCC2)cc1)c1ccc(C(=O)NO)cc1)S(=O)(=O)c1c(F)c(F)c(F)c(F)c1F [SH5–07]

MBLAC2 binding (MBLAC2): potently bound MBLAC2
Kd (MBLAC2): 75 nM
Compound: O=C(NO)c1ccc(CN2CCCc3cc(Cl)ccc32)cc1 [SW-100]

Compound: Cn1c(CCCCCCC(=O)NO)nc2cc(N(CCCl)CCCl)ccc21 [Tinostamustine, reference compound]
targets / off-targets bound [2]: bind off-targets such as ISOC1/2, GATD3A, and ALDH2

IC50 [3]: 9.1 µM
Compound: Nc1nc2c(ncn2[C@@H]2O[C@H](COC(=O)NCCc3c[nH]c4ccccc34)[C@@H](O)[C@H]2O)c(=O)[nH]1 [TrpGC, reference compound]

Compound: CN1CCc2c(c3ccccc3n2Cc2ccc(C(=O)NO)cc2)C1 [Tubastatin A, reference compound]
inhibition of proliferation of protozoans (Toxoplasma gondii): potently inhibit the proliferation

MBLAC2 binding (MBLAC2): potently bound MBLAC2
Compound: ACY-1083
